Assay: Solubility / biopharmaceutical classification (BCS) of lanraplenib
Type: physicochemical
Details: in physiological conditions

Structure (SMILES): Nc1cncc(-c2cn3ccnc3c(Nc3ccc(N4CCN(C5COC5)CC4)cc3)n2)n1 [Lanraplenib]
- solubility: low

— patent publication US20260028344A1, “CRYSTALLINE FORMS OF LANRAPLENIB AND METHODS OF MAKING AND USING THE SAME” (Kronos Bio, Inc., priority 2022, published 2026)
